Test results taken from patent US10828315B2 (Madrigal Pharmaceuticals, Inc., priority 2013, dated 2020).
pIC50: −log10 of the molar value. Read-outs that look alike come from different tables or passages of the source.

Assays:
[1] = Mouse plasma stability protocol, up to 1 h (Examples 16-18); conditions: for % Remaining (1 h): % Remaining of parent after 1 h incubation in mouse plasma at 37° C. (10 μM); for Mouse (10 μM) % Remaining 1 h (37° C.)*: sum of both peaks; for Peak Area Ratio: SDC-TRAP-0063 incubated in mouse plasma
Procedure: 150 ng/mL solution of SDC-TRAP-0002 in methanol was prepared using the internal standard spiking solution. This solution was used to precipitate all plasma samples in the study. 200 μL was pipetted into a 96 deepwell plate over dry ice. 10 μL of 1 mM stock in DMSO was added to a 1.5 mL microfuge tube, then 990 μL of plasma. Samples were mixed by vortex, then 50 μL of each sample was added in triplicate to a 96-well plate containing internal standard solution. This was designated the 0 hour time point sample. 250 μL of the remaining plasma sample was added to each of four 96 deepwell plates—one per time point. Samples were incubated at 37° C. with gentle shaking for 0.25, 0.5, and 1 hour. After each time point, one plate of each sample was removed from the shaker and placed on wet ice for approximately 2 minutes. 50 μL at plasma aliquots (in triplicate) were added to the deepwell plate containing internal standard solution. After the last time point was extracted, the 96 deepwell plate was vortexed, then centrifuged at 2-8° C. 150 μL of supernatant was collected and 25 μL at of water was added. Samples were mixed and analyzed by LC-MS/MS.
990 μL mouse plasma aliquots from a common stock were spiked with 10 μL of 1 mM stock of one of seven SDC-TRAP samples identified in the table below. Each sample was mixed and divided into 250 μL aliquots, each representing time points 0, 15 minutes, 30 minutes or 1 hour. At the prescribed time point, 3×50 μL samples were each mixed with 200 μL of methanol containing internal standard and held on dry ice until all time point samples were extracted. The samples collectively were vortex mixed for 1.5 minutes at 1500 rpm, then centrifuged at 4400 rpm for 10 minutes at 8° C.

HER2 [2] = assay: HER2 degradation in BT-474 cells (Example 3, Methods 1 and 2); format: cell-based, human
Text: This example illustrates how a HER2 degradation assay may be used as a test to determine and select Hsp90-targeting moieties suitable for use in SDC-TRAPs of the invention, and further illustrates the ability of SDC-TRAPs to target cells preferentially expressing Hsp90. Such a test may further be used to determine the Hsp90 binding ability of SDC-TRAPs of the invention, as well as through competitive binding assays and cell-based Hsp90 client protein degradation assays known in the art.
After treatment, each cytoplasmic sample is prepared from 1×10^6 cells by incubation of cell lysis buffer (#9803, Cell Signaling Technology) on ice for 10 minutes. The resulting supernatant used as the cytosol fractions is dissolved with sample buffer for SDS-PAGE and run on a SDS-PAGE gel, blotted onto a nitrocellulose membrane by using semi-dry transfer. Non-specific binding to nitrocellulose is blocked with 5% skim milk in TBS with 0.5% Tween at room temperature for 1 hour, then probed with anti-HER2/ErB2 mAb (rabbit IgG, #2242, Cell Signaling) and anti-Tubulin (T9026, Sigma) as housekeeping control protein. HRP-conjugated goat anti-rabbit IgG (H+L) and HRP-conjugated horse anti-mouse IgG (H+L) are used as secondary Ab (#7074#7076, Cell Signaling) and LumiGLO reagent, 20× Peroxide (#7003, Cell Signaling) is used for visualization. The Hsp90 client protein HER2 is degraded when cells are treated with Hsp90-targeting moieties or SDC-TRAPs of the invention.
BT-474 cells are plated in the interior 60 wells of a 96 well black clear bottom plate (20,000 cells/well) in DMEM medium, with DMEM media in the surrounding 36 wells, and incubated at 37° C. with 5% CO2 overnight. On the second day, concentration response curve source plates are produced (10 point, 3-fold dilution of compounds in DMSO) followed by a 1:30 dilution in an intermediate dilution plate containing DMEM. Compound is transferred from the intermediate plate to the cell plate at a dilution of 1:10. The cells are then incubated at 37° C. with 5% CO2 for 24 hours.
Cells are then fixed in 4% phosphate-buffered paraformaldehyde for 30 minutes at room temperature and then permeabilized by washing five times with 0.1% Triton X-100 in PBS for 5 minutes at room temperature on a shaker. […] Cells are washed five times with 0.1% Tween-20 in PBS for 5 minutes at room temperature on a shaker and incubated with fluorescently-labeled secondary antibody (LI-COR, #926-32211) diluted 1:1000 in blocking buffer, and DRAQ5 nuclear stain (Biostatus Limited, # DRAQ5) diluted 1:10,000, at room temperature on a shaker for 1 hour. Cells are washed 5 times with 0.1% Tween-20 in PBS for 5 minutes at room temperature on a shaker and imaged on a LI-COR Odyssey imaging station. The raw data is normalized to DRAQ5 and the HER2 EC50 is calculated using XLfit™.

HER2 [3] = assay: HER2 degradation assay with BT-474 cell line (Example 12, FACS); format: cell-based, human
[4] = Stability in cell culture media (Example 18); conditions: for Media (5 μM) % Remaining 1 h (37° C.)*: sum of both peaks
Procedure: 98 μL of DMEM+10% FBS, +1% P/S, +1.5 g/L sodium bicarbonate cell culture media was mixed with 2 μL of DMSO and aliquotted into 96-well plates at 250 μL per 0, 1, 2, and 18 hour time point.
3×50 μL media samples in 96 were held in 96-well plates at −80° C. until the last time point was extracted. 200 μL of methanol containing IS was added and mixed by vortex at 1500 rpm for 1.5 minutes at room temperature. The samples were centrifuged at 4400 rpm for 10 minutes at 8° C.

[5] = tested on: human breast cancer cell line BT-474; assay: Cytotoxicity assay (CellTiter-Glo, 72 h), BT-474; format: cell-based; conditions: BT-474, 72 hours, read-out: Cytotoxicity (IC50, nM) BT-474
Procedure: (§1) Cytotoxicity of SDC-TRAP molecules was determined in three cancer cell lines. […] 80 μL of CellTiter-Glo was added to each well, followed by room temperature incubation in the dark for 15 minutes. Cell was determined by luminescence. IC50 was calculated using XLfit™ software.

[6] = Artificial membrane permeability assay (PAMPA)
[7] = Metabolite profiling and identification; format: in vitro ADME; set-up: key: —: Not detected; conditions: for Metabolite Glucuronidation: M+1 569.3; for Metabolite Hydroxylation + glucuronidatiom: M+1 585.3
Text: Metabolite Profiling and Identification: Metabolite profiling/identification for SDC-TRAP-0063 (M+1:880.3)

[8] = tested on: human urinary bladder cancer cell line RT-112; assay: Cytotoxicity assay (CellTiter-Glo, 72 h), RT-112; format: cell-based; conditions: RT-112, 72 hours, read-out: Cytotoxicity (IC50, nM) RT-112
Procedure: as §1

[9] = tested on: human urinary bladder cancer cell line SW780; assay: Cytotoxicity assay (CellTiter-Glo, 72 h), SW780; format: cell-based; conditions: SW780, 72 hours, read-out: Cytotoxicity (IC50, nM) SW-780
Procedure: as §1

[10] = Tissue Distribution Data for SDC-TRAP-0045, Time (h) 0.083
[11] = Tissue Distribution Data for SDC-TRAP-0045, Time (h) 6
[12] = Tissue Distribution Data for SDC-TRAP-0045, Time (h) 12
[13] = Tissue Distribution Data for SDC-TRAP-0045, Time (h) 24
[14] = Tissue Distribution Data for SDC-TRAP-0045, Time (h) 48

Structure (SMILES): CCc1c2c(nc3ccc(O)cc13)-c1cc3c(c(=O)n1C2)COC(=O)C3(CC)OC(=O)CCC(=O)N1CCC(Cc2ccc(-n3c(O)nnc3-c3cc(C(C)C)c(O)cc3O)cc2)CC1 (centres unmarked) [SDC-TRAP-0042, 4,11-diethyl-9-hydroxy-3,14-dioxo-3,4,12,14-tetrahydro-1H-pyrano[3′,4′:6,7]indolizino[1,2-b]quinolin-4-yl 4-(4-(4-(3-(2,4-dihydroxy-5-isopropylphenyl)-5-hydroxy-4H-1,2,4-triazol-4-yl)benzyl)piperidin-1-yl)-4-oxobutanoate]
- % Remaining (1 h) [1]: 73.9%
- % Remaining (1 h, 37° C.) ([1]; mouse plasma, 1 h): 74%
- pIC50 (HER2 [2]): 5.98
- pIC50 (HER2 [3]): 5.98

Structure (SMILES): CCc1c2c(nc3ccc(O)cc13)-c1cc3c(c(=O)n1C2)COC(=O)C3(CC)OC(=O)N1CCN(Cc2ccc(-n3c(O)nnc3-c3cc(C(C)C)c(O)cc3O)cc2)CC1 (centres unmarked) [SDC-TRAP-0047, 4,11-diethyl-9-hydroxy-3,14-dioxo-3,4,12,14-tetrahydro-1H-pyrano[3′,4′:6,7]indolizino[1,2-b]quinolin-4-yl 4-(4-(3-(2,4-dihydroxy-5-isopropylphenyl)-5-hydroxy-4H-1,2,4-triazol-4-yl)benzyl)piperazine-1-carboxylate]
- % Remaining (1 h) [1]: 88.9%
- % Remaining (1 h, 37° C.) ([1]; mouse plasma, 1 h): 89%
- pIC50 (HER2 [2]): 6.06
- pIC50 (HER2 [3]): 6.06

Structure (SMILES): CCc1c2c(nc3ccc(O)cc13)-c1cc3c(c(=O)n1C2)COC(=O)C3(CC)OC(=O)N(C)CCOCCn1ccc2cc(-n3c(O)nnc3-c3cc(C(C)C)c(O)cc3O)ccc21 (centres unmarked) [SDC-TRAP-0037, 4,11-diethyl-9-hydroxy-3,14-dioxo-3,4,12,14-tetrahydro-1H-pyrano[3′,4′:6,7]indolizino[1,2-b]quinolin-4-yl (2-(2-(5-(3-(2,4-dihydroxy-5-isopropylphenyl)-5-hydroxy-4H-1,2,4-triazol-4-yl)-1H-indol-1-yl)ethoxy)ethyl)(methyl)carbamate]
- Media (5 μM) % Remaining 19 h (37° C.) [4]: 6%
- Media (5 μM) % Remaining 1 h (37° C.)* [4]: 67%
- % Remaining (1 h) [1]: 95.3%
- % Remaining (1 h, 37° C.) ([1]; mouse plasma, 1 h): 95%
- Mouse (10 μM) % Remaining 1 h (37° C.)* ([1]; mouse plasma): 95%
- pIC50 (HER2 [2]): 5.68
- pIC50 (HER2 [3]): 5.68

Structure (SMILES): CCc1c2c(nc3ccc(OC(=O)N4CCN(c5ccc(-n6c(O)nnc6-c6cc(C(C)C)c(O)cc6O)cc5)CC4)cc13)-c1cc3c(c(=O)n1C2)COC(=O)C3(O)CC (centres unmarked) [SDC-TRAP-0045, 4,11-diethyl-4-hydroxy-3,14-dioxo-3,4,12,14-tetrahydro-1H-pyrano[3′,4′:6,7]indolizino[1,2-b]quinolin-9-yl 4-(4-(3-(2,4-dihydroxy-5-isopropylphenyl)-5-hydroxy-4H-1,2,4-triazol-4-yl)phenyl)piperazine-1-carboxylate]
- Media (5 μM) % Remaining 19 h (37° C.) [4]: 50%
- Media (5 μM) % Remaining 1 h (37° C.)§ ([4]; data from single parent peak): 72%
- Media (5 μM) % Remaining 1 h (37° C.)* [4]: 77%
- % Remaining (1 h) [1]: 45.0%
- % Remaining (1 h, 37° C.) ([1]; mouse plasma, 1 h): 45%
- Mouse (10 μM) % Remaining 1 h (37° C.)§ ([1]; mouse plasma, data from single parent peak): 34%
- Mouse (10 μM) % Remaining 1 h (37° C.)* ([1]; mouse plasma): 45%
- pIC50 (HER2 [2]): 6.33
- Plasma Conc. [10]: 689000 nM
- Tumor Conc. [10]: 4.30 nmol/g of tissue
- Tumor/Plasma Ratio [10]: 0.00624
- Plasma Conc. [11]: 1880 nM
- Tumor Conc. [11]: 2.55 nmol/g of tissue
- Tumor/Plasma Ratio [11]: 1.35
- Plasma Conc. [12]: 141 nM
- Tumor Conc. [12]: 1.13 nmol/g of tissue
- Tumor/Plasma Ratio [12]: 8.02
- Plasma Conc. [13]: 11.3 nM
- Tumor Conc. [13]: BQL
- Plasma Conc. [14]: BQL
- Tumor Conc. [14]: BQL
- pIC50 (HER2 [3]): 6.33

Structure (SMILES): CCc1c2c(nc3ccc(O)cc13)-c1cc3c(c(=O)n1C2)COC(=O)[C@]3(O)CC [SN-38, reference compound]
- Media (5 μM) % Remaining 19 h (37° C.) [4]: 52%
- Media (5 μM) % Remaining 1 h (37° C.)* [4]: 82%
- IC50 [5]: > 10000 nM
- % Remaining (1 h) [1]: 63.5%
- Peak Area Ratio ([1]; 0 h): 0.0616
- Peak Area Ratio ([1]; 0.5 h): 4.13
- Peak Area Ratio ([1]; 1 h): 4.46
- Peak Area Ratio ([1]; […]): 1.37
- Mouse (10 μM) % Remaining 1 h (37° C.)* ([1]; mouse plasma): 64%
- Mass Retention ([6]; incubation 5 h, first table): 38.2%
- Mass Retention ([6]; same protocol, second table): 46.6%
- Metabolite Glucuronidation ([7]; Hepatocytes Dog): √
- Metabolite Hydroxylation + glucuronidatiom ([7]; Hepatocytes Dog): —
- Metabolite Glucuronidation ([7]; Hepatocytes Human): √
- Metabolite Hydroxylation + glucuronidatiom ([7]; Hepatocytes Human): √
- Metabolite Glucuronidation ([7]; Hepatocytes Monkey): √
- Metabolite Hydroxylation + glucuronidatiom ([7]; Hepatocytes Monkey): √
- Metabolite Glucuronidation ([7]; Hepatocytes Mouse): √
- Metabolite Hydroxylation + glucuronidatiom ([7]; Hepatocytes Mouse): —
- Metabolite Glucuronidation ([7]; Hepatocytes Rat): √
- Metabolite Hydroxylation + glucuronidatiom ([7]; Hepatocytes Rat): —
- Plasma Conc. (mouse, in vivo): BQL
- Tumor Conc. (mouse, in vivo): BQL
- IC50 [8]: < 10 nM
- IC50 [9]: 38 nM

Structure (SMILES): CCc1c2c(nc3ccc(OC(=O)N(C)CCCCN4CCN(Cc5ccc(-n6c(O)nnc6-c6cc(C(C)C)c(O)cc6O)cc5)CC4)cc13)-c1cc3c(c(=O)n1C2)COC(=O)C3(O)CC (centres unmarked) [SDC-TRAP-0044, 4,11-diethyl-4-hydroxy-3,14-dioxo-3,4,12,14-tetrahydro-1H-pyrano[3′,4′:6,7]indolizino[1,2-b]quinolin-9-yl (4-(4-(4-(3-(2,4-dihydroxy-5-isopropylphenyl)-5-hydroxy-4H-1,2,4-triazol-4-yl)benzyl)piperazin-1-yl)butyl)(methyl)carbamate]
- Media (5 μM) % Remaining 19 h (37° C.) [4]: 41%
- Media (5 μM) % Remaining 1 h (37° C.)* [4]: 50%
- % Remaining (1 h) [1]: 60.6%
- % Remaining (1 h, 37° C.) ([1]; mouse plasma, 1 h): 61%
- Mouse (10 μM) % Remaining 1 h (37° C.)* ([1]; mouse plasma): 61%
- pIC50 (HER2 [2]): 6.22
- pIC50 (HER2 [3]): 6.22

Structure (SMILES): CCc1c2c(nc3ccc(O)cc13)-c1cc3c(c(=O)n1C2)COC(=O)C3(CC)OC(=O)CCC(=O)N1CCN(Cc2ccc(-n3c(O)nnc3-c3cc(C(C)C)c(O)cc3O)cc2)CC1 (centres unmarked) [SDC-TRAP-0043, 4,11-diethyl-9-hydroxy-3,14-dioxo-3,4,12,14-tetrahydro-1H-pyrano[3′,4′:6,7]indolizino[1,2-b]quinolin-4-yl 4-(4-(4-(3-(2,4-dihydroxy-5-isopropylphenyl)-5-hydroxy-4H-1,2,4-triazol-4-yl)benzyl)piperazin-1-yl)-4-oxobutanoate]
- pIC50 (HER2 [2]): 5.67
- pIC50 (HER2 [3]): 5.67
